This passage reports inhibition, IC50 and Ki results from ChEMBL document CHEMBL1134886, “Synthesis of [(2S,3S,4R)-3,4-dihydroxypyrrolidin-2-yl]-5-methylfuran-4-carboxylic acid derivatives: new leads as selective beta-galactosidase inhibitors” (Bioorg Med Chem Lett, 2002).

As usually defined, the inhibition is the drop in the measured response relative to a control, in per cent. As a reminder, the IC50 is the midpoint of a concentration-inhibition curve. As a reminder, the Ki is a measure of affinity in units of concentration, obtained from inhibition or displacement. Read a high Ki as a looser hold on the target.

For experiment [1], the system named is Prunus dulcis. In words: Inhibitor concentration against alpha-Mannosidases from Almonds was tested at a dose of 1 mM.
The target of experiment [2] is T1, Tissue alpha-L-fucosidase (Homo sapiens) (UniProt P04066).
T1 sequence (whole entry): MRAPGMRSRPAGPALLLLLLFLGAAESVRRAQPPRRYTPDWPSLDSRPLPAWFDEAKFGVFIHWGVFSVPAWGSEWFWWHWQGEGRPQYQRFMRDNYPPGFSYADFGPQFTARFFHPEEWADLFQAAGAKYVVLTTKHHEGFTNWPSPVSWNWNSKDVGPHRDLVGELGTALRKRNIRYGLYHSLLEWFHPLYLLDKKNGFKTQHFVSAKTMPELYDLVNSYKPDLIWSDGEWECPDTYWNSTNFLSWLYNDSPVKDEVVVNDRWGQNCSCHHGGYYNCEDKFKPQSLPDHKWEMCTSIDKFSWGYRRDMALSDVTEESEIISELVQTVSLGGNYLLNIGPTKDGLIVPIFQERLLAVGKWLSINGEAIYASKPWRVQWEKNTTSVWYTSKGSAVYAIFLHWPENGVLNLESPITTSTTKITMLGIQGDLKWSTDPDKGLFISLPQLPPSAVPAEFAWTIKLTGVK
In words: Compound was tested for Percent inhibition of alpha-L-Fucosidase from Human placenta at a dose of 1 mM.

The test system of experiment [3] is Aspergillus niger. In words: Inhibitor concentration against Amyloglucosidases from Aspergillus niger was tested at a dose of 1 mM; NI means no inhibition.
Experiment [4] concerns the target Beta-galactosidase (Escherichia coli) (UniProt Q8VNN2). In words: Inhibitor concentration against Beta-galactosidase from Escherichia coli was tested at a dose of 1 mM; NI means no inhibition.
Experiment [5] has as its target T2, Beta-galactosidase (Bos taurus) (UniProt Q58D55).
T2 sequence (whole entry): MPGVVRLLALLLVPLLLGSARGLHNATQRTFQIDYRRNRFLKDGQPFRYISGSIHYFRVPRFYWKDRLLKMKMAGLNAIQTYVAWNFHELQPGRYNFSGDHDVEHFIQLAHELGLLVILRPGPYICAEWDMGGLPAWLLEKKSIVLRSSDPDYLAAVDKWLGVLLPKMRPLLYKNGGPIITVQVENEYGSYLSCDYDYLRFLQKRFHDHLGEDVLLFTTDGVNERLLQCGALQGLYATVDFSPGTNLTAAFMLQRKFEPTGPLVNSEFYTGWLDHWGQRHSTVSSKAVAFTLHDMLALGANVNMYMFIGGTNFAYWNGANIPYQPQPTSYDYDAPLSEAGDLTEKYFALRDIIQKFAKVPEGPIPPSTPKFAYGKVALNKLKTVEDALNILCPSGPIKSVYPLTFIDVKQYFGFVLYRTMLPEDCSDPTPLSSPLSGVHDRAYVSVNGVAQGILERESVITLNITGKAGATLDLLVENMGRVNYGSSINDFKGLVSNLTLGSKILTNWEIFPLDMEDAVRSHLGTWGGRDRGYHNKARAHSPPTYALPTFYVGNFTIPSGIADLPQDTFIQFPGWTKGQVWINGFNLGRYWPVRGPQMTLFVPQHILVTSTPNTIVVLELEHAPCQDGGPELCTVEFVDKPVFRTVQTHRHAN
In words: Compound was tested for Percent inhibition of Beta-galactosidase from Bovine liver at a dose of 1 mM.

Experiment [6] deals with Canavalia ensiformis. In words: Compound was tested for Percent inhibition of alpha-Mannosidases from Jack beans at a dose of 1 mM.
Experiment [7] addresses Beta-galactosidase (Escherichia coli) (UniProt Q8VNN2). In words: Inhibitor concentration against Beta-galactosidase from was Escherichia coli tested at a dose of 1 mM; NI means no inhibition.
The target of experiment [8] is T3, Beta-galactosidase (Aspergillus niger) (UniProt P29853).
T3 sequence (whole entry): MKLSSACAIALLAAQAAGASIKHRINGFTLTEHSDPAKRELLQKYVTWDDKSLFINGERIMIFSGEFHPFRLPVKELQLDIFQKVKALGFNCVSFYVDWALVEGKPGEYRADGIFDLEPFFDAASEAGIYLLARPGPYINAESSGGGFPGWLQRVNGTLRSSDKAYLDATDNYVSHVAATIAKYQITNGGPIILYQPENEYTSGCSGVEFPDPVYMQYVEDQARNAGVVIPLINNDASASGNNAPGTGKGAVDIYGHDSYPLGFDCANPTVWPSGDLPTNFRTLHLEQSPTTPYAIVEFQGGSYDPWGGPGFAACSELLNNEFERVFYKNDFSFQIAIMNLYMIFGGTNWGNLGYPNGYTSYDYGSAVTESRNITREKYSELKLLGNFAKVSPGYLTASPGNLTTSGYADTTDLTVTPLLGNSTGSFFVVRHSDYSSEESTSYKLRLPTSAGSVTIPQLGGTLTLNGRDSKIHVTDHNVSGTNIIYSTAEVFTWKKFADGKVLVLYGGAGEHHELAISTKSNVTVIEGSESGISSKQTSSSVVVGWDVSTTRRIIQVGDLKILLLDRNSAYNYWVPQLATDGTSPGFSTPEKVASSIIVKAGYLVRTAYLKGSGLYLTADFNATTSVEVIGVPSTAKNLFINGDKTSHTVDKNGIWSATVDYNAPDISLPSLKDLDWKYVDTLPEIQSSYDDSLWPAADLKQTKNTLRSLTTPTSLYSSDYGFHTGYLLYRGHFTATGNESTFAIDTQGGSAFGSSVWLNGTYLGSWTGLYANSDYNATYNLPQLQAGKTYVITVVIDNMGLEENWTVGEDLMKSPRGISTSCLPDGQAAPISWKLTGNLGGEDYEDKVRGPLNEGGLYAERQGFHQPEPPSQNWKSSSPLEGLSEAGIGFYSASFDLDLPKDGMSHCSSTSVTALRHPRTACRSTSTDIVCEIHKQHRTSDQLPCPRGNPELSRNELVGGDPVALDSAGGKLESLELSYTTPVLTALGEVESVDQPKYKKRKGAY
In words: Compound was tested for Percent inhibition of Beta-galactosidase from Aspergillus niger. The following applies: concentration not given here.

Experiment [9] has as its target T4, Beta-galactosidase (Bos taurus, UniProt Q58D55).
T4 sequence (Q58D55 whole entry): T2 sequence (whole entry)
In words: Inhibitor concentration against Beta-galactosidase from Bovine liver.

In experiment [10] the target is T5, Beta-galactosidase (Aspergillus niger, UniProt P29853).
T5 sequence (P29853 whole entry): T3 sequence (whole entry)
In words: Inhibitor concentration against Beta-galactosidase from Aspergillus niger was tested at a dose of 1 mM.

Experiment [11] deals with Rhizopus. In words: Inhibitor concentration against Amyloglucosidases from Rhizopus mold was tested at a dose of 1 mM; NI means no inhibition.
In experiment [12] the target is T5, Beta-galactosidase. In words: Inhibitor concentration against Beta-galactosidase from Aspergillus niger.
Experiment [13] concerns Rhizopus. In words: Compound was tested for Percent inhibition of Amyloglucosidases from Rhizopus mold; NI means no inhibition.
Experiment [14] concerns Prunus dulcis. In words: Inhibition of alpha-Mannosidases from Almonds was tested at a dose of 1 mM.
The target in experiment [15] is T5, Beta-galactosidase. In words: Inhibition constant(Non competitive) of compound against Beta-galactosidase from Aspergillus niger.
In experiment [16] the target is Beta-galactosidase (Escherichia coli) (UniProt Q8VNN2). In words: Compound was tested for Percent inhibition of Beta-galactosidase from Escherichia coli at a dose of 1 mM.
Experiment [17] concerns the target Alpha-galactosidase (Coffea arabica) (UniProt Q42656). In words: Compound showed Non competitive inhibition against Alpha-galactosidase from coffee bean; NI means no inhibition at a dose of 1 mM.
Experiment [18] addresses T3, Beta-galactosidase (Aspergillus niger). In words: Compound was tested for Percent inhibition of Beta-galactosidase from Aspergillus niger at a dose of 1 mM.
In experiment [19] the target is Alpha-galactosidase (Coffea arabica) (UniProt Q42656). In words: Compound was tested for Percent inhibition of Alpha-galactosidase from Coffee bean at a dose of 1 mM.
The subject of experiment [20] is Prunus dulcis. In words: Inhibitor concentration against alpha-Mannosidases from Almond was tested at a dose of 1 mM.
The target of experiment [21] is T3, Beta-galactosidase (Aspergillus niger). In words: Inhibitor concentration against Beta-galactosidase from Aspergillus niger was tested at a dose of 1 mM; NI means no inhibition.
Experiment [22] has as its target alpha-galactosidase (Escherichia coli) (UniProt P06720). In words: Inhibitor concentration against alpha-Galactosidase from Escherichia coli was tested at a dose of 1 mM; NI means no inhibition.
Experiment [23] relates to Prunus dulcis. In words: Inhibitor concentration against alpha-Mannosidases from Almond was tested at a dose of 1 mM; NI means no inhibition.
For experiment [24], the target named is Alpha-galactosidase (Coffea arabica) (UniProt Q42656). In words: Inhibitor concentration against Alpha-galactosidase from Coffee beans was tested at a dose of 1 mM; NI means no inhibition.
Experiment [25] concerns Prunus dulcis. In words: Inhibition of alpha-Mannosidases from Almond was tested at a dose of 1 mM; NI means no inhibition.

The structures appear in SMILES notation. The source made the active and inactive calls. The calls are words filed in the database; no cut-off is given here.

Chain of Alpha-galactosidase (Coffea arabica) (Q42656 whole entry, looked up): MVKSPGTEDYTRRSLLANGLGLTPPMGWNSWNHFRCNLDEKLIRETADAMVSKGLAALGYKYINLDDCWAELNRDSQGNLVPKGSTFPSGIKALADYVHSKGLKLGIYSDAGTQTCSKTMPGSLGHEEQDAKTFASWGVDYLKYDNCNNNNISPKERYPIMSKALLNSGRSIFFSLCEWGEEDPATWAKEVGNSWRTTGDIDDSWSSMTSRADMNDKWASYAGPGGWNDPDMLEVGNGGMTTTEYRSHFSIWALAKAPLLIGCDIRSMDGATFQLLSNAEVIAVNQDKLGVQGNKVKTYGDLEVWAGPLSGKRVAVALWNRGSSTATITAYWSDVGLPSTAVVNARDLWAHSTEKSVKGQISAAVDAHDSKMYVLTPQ
Chain of Beta-galactosidase (Escherichia coli) (Q8VNN2 whole entry, looked up): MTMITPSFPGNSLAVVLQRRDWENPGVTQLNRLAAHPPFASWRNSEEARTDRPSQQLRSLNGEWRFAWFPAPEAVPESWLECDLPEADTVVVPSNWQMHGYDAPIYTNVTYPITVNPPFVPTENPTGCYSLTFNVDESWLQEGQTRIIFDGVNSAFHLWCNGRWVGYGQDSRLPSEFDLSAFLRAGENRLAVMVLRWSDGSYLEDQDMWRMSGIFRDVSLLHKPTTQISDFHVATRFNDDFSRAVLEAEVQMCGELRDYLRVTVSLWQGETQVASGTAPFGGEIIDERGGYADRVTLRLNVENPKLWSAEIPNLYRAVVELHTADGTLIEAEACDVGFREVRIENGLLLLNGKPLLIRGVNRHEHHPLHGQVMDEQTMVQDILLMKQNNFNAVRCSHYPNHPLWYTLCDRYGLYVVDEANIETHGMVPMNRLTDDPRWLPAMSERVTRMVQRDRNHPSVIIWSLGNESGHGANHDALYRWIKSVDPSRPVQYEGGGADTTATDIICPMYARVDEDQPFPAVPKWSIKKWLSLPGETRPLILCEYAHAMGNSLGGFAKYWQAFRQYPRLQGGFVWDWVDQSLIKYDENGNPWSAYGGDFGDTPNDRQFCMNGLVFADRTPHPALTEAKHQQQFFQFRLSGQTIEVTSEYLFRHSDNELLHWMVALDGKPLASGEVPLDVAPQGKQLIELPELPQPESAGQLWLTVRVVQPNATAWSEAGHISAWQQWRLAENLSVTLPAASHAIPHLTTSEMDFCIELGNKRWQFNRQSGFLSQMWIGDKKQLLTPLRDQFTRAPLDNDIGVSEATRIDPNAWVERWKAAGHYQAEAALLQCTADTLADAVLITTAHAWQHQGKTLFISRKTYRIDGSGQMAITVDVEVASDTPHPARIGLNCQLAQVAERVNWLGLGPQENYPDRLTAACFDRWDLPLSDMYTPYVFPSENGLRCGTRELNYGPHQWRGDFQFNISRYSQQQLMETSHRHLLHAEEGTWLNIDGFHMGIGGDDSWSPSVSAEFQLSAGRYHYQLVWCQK
Chain of alpha-galactosidase (Escherichia coli) (P06720 whole entry, looked up): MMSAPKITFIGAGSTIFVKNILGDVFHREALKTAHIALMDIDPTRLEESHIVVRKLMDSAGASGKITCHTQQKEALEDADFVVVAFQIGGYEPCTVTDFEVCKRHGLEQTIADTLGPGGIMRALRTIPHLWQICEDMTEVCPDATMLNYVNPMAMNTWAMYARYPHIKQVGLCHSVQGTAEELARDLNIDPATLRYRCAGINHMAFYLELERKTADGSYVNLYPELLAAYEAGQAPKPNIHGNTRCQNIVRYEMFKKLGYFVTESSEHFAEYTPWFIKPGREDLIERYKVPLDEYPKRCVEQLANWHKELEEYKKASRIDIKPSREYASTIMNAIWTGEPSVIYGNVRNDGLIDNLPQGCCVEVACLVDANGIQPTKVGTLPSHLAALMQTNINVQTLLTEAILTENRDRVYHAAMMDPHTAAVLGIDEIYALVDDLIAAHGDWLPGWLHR

For `CCN(CC)C(=O)c1cc([C@@H]2NC[C@@H](O)[C@H]2O)oc1C`, the inhibition in experiment [1] stood at 31%; in experiment [2], 91%; in [5], 58%; in experiment [6] it was 27%. The inhibition result in [3] and in [4] was “inactive” in each case.

For `Cc1oc([C@H]2NC[C@@H](O)[C@H]2O)cc1C(=O)NC(C)C`, the inhibition result in experiment [7], in experiment [3] and in [11] was “inactive” in each case. Moreover, the inhibition was found to be 79% in experiment [8], 39% in experiment [2] and 49% in experiment [5]. Also, the IC50 worked out at 1000 µM in experiment [9] and 250 µM in experiment [10].

On to `CCN(CC)C(=O)c1cc([C@H]2NC[C@@H](O)[C@H]2O)oc1C`, for which the IC50 in [12] was 28 µM; in experiment [9], 42 µM. Moreover, the inhibition result in experiment [13] and in [3] was “inactive” each time. Further, the inhibition in [14] is 38%; in [16], 33%; in experiment [5], 90%; in experiment [6] it was 37%; in experiment [17], “No inhibition”; in experiment [18] it was 96%. In addition, in experiment [15], the affinity, expressed as Ki, was 30 µM.

Take `Cc1oc([C@@H]2NC[C@@H](O)[C@H]2O)cc1C(=O)NC(C)C`: the inhibition in experiment [19] stood at 29%; in experiment [20] it was 9%; in experiment [3], 23%; in experiment [5] it was 38%. For the same compound, the inhibition result in experiment [4] and in experiment [21] was “inactive” in each case.

Consider `CCOC(=O)c1cc([C@@H]2NC[C@@H](O)[C@H]2O)oc1C`, for which the inhibition result in experiment [22], in experiment [3] and in experiment [23] was “inactive” throughout. The inhibition in experiment [2] turned out to be 76%; in [5], 57%; in experiment [6], 38%; in experiment [18], 80%.

For the compound `CCOC(=O)c1cc([C@H]2NC[C@@H](O)[C@H]2O)oc1C`, the Ki result in experiment [24] is on record as “Not Active”. Also, the inhibition entry in experiment [13] and in [3] was “inactive” in each case. In addition, the inhibition in experiment [25] is 37%; in experiment [16], 83%; in experiment [5], 78%; in [6] it was 49%; in experiment [18], 99%.
